We go through 20 molecules from patent publication US11919887B2, “Substituted tetrahydrofurans as modulators of sodium channels” (Vertex Pharmaceuticals Incorporated, priority 2019, dated 2024).

SMILES strings stand for the structures.

The IC50 is the concentration needed to halve the response being measured.

human Nav 1.8, sequence (Q9Y5Y9 whole entry, looked up, the tested form may be a part): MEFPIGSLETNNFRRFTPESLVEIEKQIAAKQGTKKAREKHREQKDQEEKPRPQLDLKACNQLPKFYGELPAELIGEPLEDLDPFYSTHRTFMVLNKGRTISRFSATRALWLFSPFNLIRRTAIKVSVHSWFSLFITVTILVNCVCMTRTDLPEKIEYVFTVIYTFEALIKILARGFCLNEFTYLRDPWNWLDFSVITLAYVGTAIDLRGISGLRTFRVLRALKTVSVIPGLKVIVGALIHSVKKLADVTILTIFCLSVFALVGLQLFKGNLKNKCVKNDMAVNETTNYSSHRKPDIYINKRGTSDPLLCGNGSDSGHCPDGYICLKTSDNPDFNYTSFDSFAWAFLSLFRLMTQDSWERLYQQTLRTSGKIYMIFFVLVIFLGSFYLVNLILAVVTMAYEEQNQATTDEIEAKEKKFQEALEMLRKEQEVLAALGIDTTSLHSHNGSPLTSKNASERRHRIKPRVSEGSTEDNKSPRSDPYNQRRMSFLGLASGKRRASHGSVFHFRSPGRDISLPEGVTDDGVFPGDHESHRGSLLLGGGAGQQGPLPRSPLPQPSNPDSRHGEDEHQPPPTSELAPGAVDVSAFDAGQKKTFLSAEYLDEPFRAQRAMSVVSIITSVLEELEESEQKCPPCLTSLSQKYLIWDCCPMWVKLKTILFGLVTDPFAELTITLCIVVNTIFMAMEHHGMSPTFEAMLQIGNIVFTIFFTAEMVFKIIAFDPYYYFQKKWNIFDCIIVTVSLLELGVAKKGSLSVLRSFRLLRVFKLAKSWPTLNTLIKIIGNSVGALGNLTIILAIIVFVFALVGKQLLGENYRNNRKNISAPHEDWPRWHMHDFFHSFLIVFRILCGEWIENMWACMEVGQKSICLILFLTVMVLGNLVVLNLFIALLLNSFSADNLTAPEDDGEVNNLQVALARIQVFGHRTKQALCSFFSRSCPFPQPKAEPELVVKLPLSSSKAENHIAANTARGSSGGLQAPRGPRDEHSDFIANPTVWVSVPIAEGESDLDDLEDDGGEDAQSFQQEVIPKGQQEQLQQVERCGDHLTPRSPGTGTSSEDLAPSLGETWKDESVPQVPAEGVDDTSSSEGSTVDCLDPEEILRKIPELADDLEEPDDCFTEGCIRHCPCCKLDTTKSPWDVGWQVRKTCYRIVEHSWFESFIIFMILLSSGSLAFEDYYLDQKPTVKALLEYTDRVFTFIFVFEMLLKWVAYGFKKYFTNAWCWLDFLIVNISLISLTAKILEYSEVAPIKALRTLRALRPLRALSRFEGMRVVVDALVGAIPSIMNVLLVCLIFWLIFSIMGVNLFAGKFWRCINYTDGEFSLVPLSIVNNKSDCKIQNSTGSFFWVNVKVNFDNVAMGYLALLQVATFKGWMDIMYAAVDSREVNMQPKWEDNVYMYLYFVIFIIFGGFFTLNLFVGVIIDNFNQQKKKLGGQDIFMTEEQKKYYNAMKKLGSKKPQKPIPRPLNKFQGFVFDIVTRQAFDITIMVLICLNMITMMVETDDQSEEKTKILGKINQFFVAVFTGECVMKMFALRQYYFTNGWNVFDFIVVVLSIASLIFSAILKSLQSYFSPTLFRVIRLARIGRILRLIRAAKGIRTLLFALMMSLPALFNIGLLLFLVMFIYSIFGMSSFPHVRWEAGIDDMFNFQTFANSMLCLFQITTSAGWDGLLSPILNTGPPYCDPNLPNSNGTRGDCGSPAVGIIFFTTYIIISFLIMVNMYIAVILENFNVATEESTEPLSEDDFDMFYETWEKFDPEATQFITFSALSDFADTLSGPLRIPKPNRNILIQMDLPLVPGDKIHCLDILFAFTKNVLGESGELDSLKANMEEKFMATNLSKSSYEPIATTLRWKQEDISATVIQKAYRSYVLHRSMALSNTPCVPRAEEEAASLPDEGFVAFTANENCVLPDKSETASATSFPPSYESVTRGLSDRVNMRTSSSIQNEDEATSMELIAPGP

The first assay concerns the target human Nav 1.8 (Homo sapiens, UniProt Q9Y5Y9). Nature of the assay: E-VIPR assay detecting and measuring Nav inhibition (HEK cells expressing truncated human Nav 1.8). The settings on record: in the Absence of Human Serum in the E-VIPR Assay; read-out: IC50. The assay is classed as cell-based. An excerpt:
Sodium ion channels are voltage-dependent proteins that can be activated by inducing membrane voltage changes by applying electric fields. The electrical stimulation instrument and methods of use, referred to as E-VIPR, are described in International Publication No. WO 2002/008748 A3 and C.-J. Huang et al. Characterization of voltage-gated sodium channel blockers by electrical stimulation and fluorescence detection of membrane potential, 24 Nature Biotech. 439-46 (2006), both of which are incorporated by reference in their entirety. The instrument comprises a microtiter plate handler, an optical system for exciting the coumarin dye while simultaneously recording the coumarin and oxonol emissions, a waveform generator, a current- or voltage-controlled amplifier, and parallel electrode pairs that are inserted into assay plate wells. Under integrated computer control, this instrument passes user-programmed electrical stimulus protocols to cells within the wells of the microtiter plate.
16-20 hours prior to running the assay on E-VIPR, HEK cells expressing a truncated form of human Nav 1.8 with full channel activity were seeded into microtiter 384-well plates, pre-coated with matrigel, at a density of 25,000 cells per well. 2.5-5% KIR2.1 Bacmam virus was added to the final cell suspension before seeding into cell plates. HEK cells were grown in Dulbecco's Modified Eagle's Medium (DMEM) supplemented with 10% FBS (Fetal Bovine Serum, qualified; Sigma #F4135), 1% NEAA (Non-Essential Amino Acids, Gibco #11140), 1% HEPES (Gibco #15630), 1% Pen-Strep (Penicillin-Streptomycin; Gibco #15140) and 5 μg/ml Blasticidin (Gibco #R210-01). Cells were expanded in vented cap cell culture flasks, with 90-95% humidity and 5% CO2.
Human Serum (HS, Millipore #S1P1-01KL, or Sigma SLBR5469V and SLBR5470V as a 50%/50% mixture, for 25% assay final concentration)
Bath1 Buffer: • Sodium Chloride 160 mM (9.35 g/L), Potassium Chloride, 4.5 mM (0.335 g/L), Glucose 10 mM (1.8 g/L), Magnesium Chloride (Anhydrous) 1 mM (0.095 g/L), Calcium Chloride 2 mM (0.222 g/L), HEPES 10 mM (2.38 g/L) in water.
Na/TMA Cl Bath1 Buffer: • Sodium Chloride 96 mM (5.61 g/L), Potassium Chloride 4.5 mM (0.335 g/L), Tetramethylammonium (TMA)-Cl 64 mM (7.01 g/L), Glucose 10 mM (1.8 g/L), Magnesium Chloride (Anhydrous) 1 mM (0.095 g/L), Calcium Chloride 2 mM (0.222 g/L) HEPES 10 mM (2.38 g/L) in water.
Hexyl Dye Solution (2× concentration): • Bath1 Buffer containing 0.5% β-cyclodextrin (made fresh prior to each use, Sigma #C4767), 8 μM CC2-DMPE and 2 μM DiSBAC6(3). The solution was made by adding 10% Pluronic F127 stock equal to combined volumes of CC2-DMPE and DiSBAC6(3). The order of preparation was first mix Pluronic and CC2-DMPE, then add DiSBAC6(3), then while vortexing add Bath1/β-Cyclodextrin.
Compound Loading Buffer (2×concentration): Na/TMA Cl Bath1 Buffer containing HS (omitted in experiments run in the absence of human serum (HS)) 50%, VABSC-1 1 mM, BSA 0.2 mg/ml (in Bath-1), KCl 9 mM, DMSO 0.75%.
Assay Protocol (7 Key Steps): • 1) To reach the final concentration in each well, 400 nL of each compound was pre-spotted (in neat DMSO) into polypropylene compound plates at 250×desired final concentration from an intermediate stock concentration of 0.075 mM, in an 11 point dose response, 3-fold dilution, resulting in a top dose of 300 nM final concentration in the cell plate. Vehicle control (neat DMSO), and positive control (an established Nav1.8 inhibitor, 25 μM final in assay in DMSO) were added manually to the outermost columns of each plate respectively. The compound plate was backfilled with 45 μL per well of Compound Loading Buffer resulting in a 250 fold dilution of compound following a 1:1 transfer of compound into the cell plate (see Step 6). Final DMSO concentration for all wells in the assay was 0.625% (0.75% DMSO was supplemented to the Compound Loading Buffer for a final DMSO concentration of 0.625%). […]
With `C=Cc1c([C@H]2[C@H](C(=O)Nc3ccnc(C(N)=O)c3)O[C@@](C)(C(F)(F)F)[C@H]2C)ccc(F)c1F` [Compound 149, 4-[[(2R,3S,4S,5R)-3-(3,4-difluoro-2-vinyl-phenyl)-4,5-dimethyl-5-(trifluoromethyl)tetrahydrofuran-2-carbonyl]amino]pyridine-2-carboxamide], the concentration for half-maximal inhibition (IC50) was less than 0.01 µM. Same read-out and setting: for `COc1nc(C(F)F)ccc1[C@@H]1[C@@H](C(=O)Nc2ccnc(C(N)=O)c2)O[C@](C)(C(F)(F)F)[C@@H]1C` (stereo in doubt) [Compound 141, rel-(2S,3R,4R,5S)-4-[[3-[6-(difluoromethyl)-2-methoxy-3-pyridyl]-4,5-dimethyl-5-(trifluoromethyl)tetrahydrofuran-2-carbonyl]amino]pyridine-2-carboxamide] the value was more than 1 µM. With `COc1c([C@H]2[C@H](C(=O)Nc3ccnc(C(N)=O)c3)O[C@@](C)(C(F)(F)F)[C@H]2C)ccc(C(F)F)c1F` (single isomer, unassigned) [Compound 136], the IC50 was less than 0.01 µM. Consider `COc1c([C@H]2[C@H](C(=O)Nc3ccnc(C(N)=O)c3)O[C@@](C)(C(F)(F)F)[C@H]2C)cc(Cl)c(F)c1F` [Compound 152, 4-[[(2R,3S,4S,5R)-3-(5-chloro-3,4-difluoro-2-methoxy-phenyl)-4,5-dimethyl-5-(trifluoromethyl)tetrahydrofuran-2-carbonyl]amino]pyridine-2-carboxamide], for which the IC50 was less than 0.01 µM.

The assay is the same for the next values; noted with them: in the Presence of Human Serum in the E-VIPR Assay.
In the case of `COc1c([C@@H]2[C@@H](C(=O)Nc3ccnc(C(N)=O)c3)O[C@@](C)(C(F)(F)F)[C@@H]2C)ccc(F)c1F` (racemic) [Compound 33, rac-(2S,3R,4R,5R)-4-[[3-(3,4-difluoro-2-methoxy-phenyl)-4,5-dimethyl-5-(trifluoromethyl)tetrahydrofuran-2-carbonyl]amino]pyridine-2-carboxamide], the IC50 lay in the range of 0.1 to 1 µM. As to `COc1c([C@@H]2[C@@H](C)[C@](C)(C(F)(F)F)O[C@H]2C(=O)Nc2ccnc(C(N)=O)c2)ccc(F)c1F` (racemic) [Compound 35, rac-(2R,3S,4R,5R)-4-[[3-(3,4-difluoro-2-methoxy-phenyl)-4,5-dimethyl-5-(trifluoromethyl)tetrahydrofuran-2-carbonyl]amino]pyridine-2-carboxamide], the half-inhibitory concentration (IC50) lay within 0.1 to 1 µM. Same read-out and setting: for `COc1c([C@@H]2[C@@H](C(=O)Nc3ccnc(C(N)=O)c3)O[C@](C)(C(F)(F)F)[C@@H]2C)ccc(F)c1F` [Compound 6, (2S,3R,4R,5S)-4-[[3-(3,4-difluoro-2-methoxy-phenyl)-4,5-dimethyl-5-(trifluoromethyl)tetrahydrofuran-2-carbonyl]amino]pyridine-2-carboxamide] the value was more than 1 µM.

The assay is the same for the next values; noted with them: in the Presence of Human Serum in the E-VIPR Assay; read-out: IC50.
In the case of `C[C@H]1[C@@H](c2ccc(F)c(F)c2OC(F)F)[C@H](C(=O)Nc2ccnc(C(N)=O)c2)O[C@@]1(C)C(F)(F)F` [Compound 11, (2R,3S,4S,5R)-4-[[3-[2-(difluoromethoxy)-3,4-difluoro-phenyl]-4,5-dimethyl-5-(trifluoromethyl)tetrahydrofuran-2-carbonyl]amino]pyridine-2-carboxamide], the IC50 is less than 0.01 µM.

Consider `COc1c([C@H]2C[C@@](C)(C(F)(F)F)O[C@@H]2C(=O)Nc2ccc(F)c(C(N)=O)c2)ccc(F)c1F` (single isomer, unassigned) [Compound 46], for which the IC50 was more than 1 µM.

For `COc1cc(F)ccc1[C@H]1C[C@@](C)(C(F)(F)F)O[C@@H]1C(=O)Nc1ccnc(C(N)=O)c1` (stereo in doubt) [Compound 67, rel-(2S,3R,5S)-4-[[3-(4-fluoro-2-methoxy-phenyl)-5-methyl-5-(trifluoromethyl)tetrahydrofuran-2-carbonyl]amino]pyridine-2-carboxamide], the IC50 is more than 1 µM. On to `COc1cc(F)ccc1[C@H]1[C@H](C(=O)Nc2ccnc(C(N)=O)c2)O[C@@](C)(C(F)(F)F)[C@H]1C` (single isomer, unassigned) [Compound 3a], for which the IC50 is more than 1 µM.

As to `CC[C@H]1[C@@H](c2ccc(F)c(F)c2OC)[C@H](C(=O)Nc2ccnc(C(N)=O)c2)O[C@@]1(C)C(F)(F)F` (racemic) [Compound 116, rac-(2R,3S,4S,5R)-4-[[3-(3,4-difluoro-2-methoxy-phenyl)-4-ethyl-5-methyl-5-(trifluoromethyl)tetrahydrofuran-2-carbonyl]amino]pyridine-2-carboxamide], the IC50 was less than 0.01 µM. In the case of `COc1c([C@@H]2[C@@H](C)C(C)(C)O[C@H]2C(=O)Nc2ccnc(C(N)=O)c2)ccc(F)c1F` (single isomer, unassigned) [Compound 103], the IC50 is more than 1 µM. As for `COc1c([C@H]2C[C@@H](C(F)(F)F)O[C@@H]2C(=O)Nc2ccnc(C(N)=O)c2)ccc(F)c1F` (stereo in doubt) [Compound 109, rel-(2S,3R,5S)-4-[[3-(3,4-difluoro-2-methoxy-phenyl)-5-(trifluoromethyl)tetrahydrofuran-2-carbonyl]amino]pyridine-2-carboxamide], the IC50 is more than 1 µM. Regarding `CCOc1c([C@H]2[C@H](C(=O)Nc3ccnc(C(N)=O)c3)O[C@@](C)(C(F)(F)F)[C@H]2C)ccc(F)c1F` [Compound 9, (2R,3S,4S,5R)-4-[[3-(2-ethoxy-3,4-difluoro-phenyl)-4,5-dimethyl-5-(trifluoromethyl)tetrahydrofuran-2-carbonyl]amino]pyridine-2-carboxamide], the IC50 is less than 0.01 µM. Still for that read-out and setting: for `COc1c([C@@H]2C[C@H](C(F)(F)F)O[C@H]2C(=O)Nc2ccnc(C(N)=O)c2)ccc(F)c1C` (single isomer, unassigned) [Compound 112] the value was 0.1 to 1 µM. Still for that read-out and setting: in the case of `COc1c([C@H]2[C@@H](C(=O)Nc3ccnc(C(N)=O)c3)OC(C)(C)[C@@H]2C)ccc(F)c1F` (racemic) [Compound 100, rac-(2S,3S,4R)-4-[[3-(3,4-difluoro-2-methoxy-phenyl)-4,5,5-trimethyl-tetrahydrofuran-2-carbonyl]amino]pyridine-2-carboxamide] it was more than 1 µM; in that of `COc1cccc(F)c1[C@@H]1C[C@](C)(C(F)(F)F)O[C@H]1C(=O)Nc1ccnc(C(N)=O)c1` (racemic) [Compound 79, rac-(2R,3S,5R)-4-[[3-(2-fluoro-6-methoxy-phenyl)-5-methyl-5-(trifluoromethyl)tetrahydrofuran-2-carbonyl]amino]pyridine-2-carboxamide], more than 1 µM. Still for that read-out and setting: for `COc1c([C@@H]2[C@H](C)[C@H](C(F)(F)F)O[C@H]2C(=O)Nc2ccnc(C(N)=O)c2)ccc(F)c1F` (relative stereo) [Compound 25, rel-(2S,3R,4R,5S)-4-[[3-(3,4-difluoro-2-methoxy-phenyl)-4-methyl-5-(trifluoromethyl)tetrahydrofuran-2-carbonyl]amino]pyridine-2-carboxamide] the value was less than 0.01 µM; for `COc1nc(C(F)(F)F)ccc1[C@@H]1[C@@H](C(=O)Nc2ccnc(C(N)=O)c2)O[C@](C)(C(F)(F)F)[C@@H]1C` (stereo in doubt) [Compound 137, rel-(2S,3R,4R,5S)-4-[[3-[2-methoxy-6-(trifluoromethyl)-3-pyridyl]-4,5-dimethyl-5-(trifluoromethyl)tetrahydrofuran-2-carbonyl]amino]pyridine-2-carboxamide], more than 1 µM.
